Patent publication US5102897A, “3,5-ditertiarybutyl-4-hydroxyphenyl, 1,3,4-thiadiazoles and oxadiazoles linked by carbon, oxygen, and sulfur residues” (Warner-Lambert Company, priority 1991, dated 1992)

Experiments:
[1] = target: T1, Cyclooxygenase (Rattus norvegicus, UniProt Q63921); experiment: ARBC whole cell cyclooxygenase assay (RBL-1 cells, PGF2α formation, RIA); format: cell-based; conditions: RBL-1 whole cells; for IC50: calcium ionophore A23187 (5 μM), read-out: ARBC: IC50 for PGF2α inhibition; for inhibition at 10 µM: read-out: ARBC: Percent inhibition of PGF2α @ 10 μM
T1 construct: host or cells: RBL-1 (rat basophilic leukemia)
T1 sequence (Q63921 27-602): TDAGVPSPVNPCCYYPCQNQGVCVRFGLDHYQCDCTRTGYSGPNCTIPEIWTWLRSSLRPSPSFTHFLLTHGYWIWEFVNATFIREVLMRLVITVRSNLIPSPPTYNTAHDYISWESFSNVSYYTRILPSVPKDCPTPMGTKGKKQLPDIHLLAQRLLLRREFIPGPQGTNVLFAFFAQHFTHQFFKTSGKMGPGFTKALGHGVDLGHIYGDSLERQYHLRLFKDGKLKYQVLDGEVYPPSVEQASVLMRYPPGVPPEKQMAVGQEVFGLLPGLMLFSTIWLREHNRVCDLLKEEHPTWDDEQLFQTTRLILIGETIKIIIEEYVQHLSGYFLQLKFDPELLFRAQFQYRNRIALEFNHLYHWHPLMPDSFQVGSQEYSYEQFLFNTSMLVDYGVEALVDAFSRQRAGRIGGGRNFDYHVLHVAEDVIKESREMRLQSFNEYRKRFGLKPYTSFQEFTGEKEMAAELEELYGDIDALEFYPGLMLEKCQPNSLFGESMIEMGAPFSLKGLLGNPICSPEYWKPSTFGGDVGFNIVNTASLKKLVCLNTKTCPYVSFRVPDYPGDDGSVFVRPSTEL
Protocol: (§1) ARBL/ARBC Whole Cell 5-Lipoxygenase and Cyclooxygenase Assays
(§2) The rat basophilic leukemia cell line (RBL-1) was obtained from the American Type Culture Collection (Rockville, MD).
(§3) Radioimmunoassay (RIA) kits of LTB4 and PGF2.sbsb.α were obtained from Amersham (Arlington Heights, Ill.) and Seragen (Boston, Mass.), respectively.
(§4) RBL-1 cells are grown in suspension culture in Eagle's minimum essential medium supplemented with 12% fetal bovine serum at 37° C. in an incubator supplied with air-5% carbon dioxide. Cells are harvested by centrifugation. They are washed with cold phosphate buffered saline pH 7.4 (PBS; NaCl, 7.1 g; Na2 HPO4, 1.15 g; KH2 PO4, 0.2 g; and KCl, 0.2 g/L). Cells are finally suspended in PBS containing 1.0 mM calcium at a density of 2×10^6 cells/mL. Cells are incubated with and without test agent (in DMSO) (1% DMSO is without effect on arachidonic acid metabolism) for ten minutes at room temperature. Calcium ionophore A23187 (5 μM) is added and cells are incubated for 7 minutes at 37° C. The reaction is stopped by chilling the tubes on ice for 10 minutes. Cells are separated by centrifugation and the supernatant is stored at -20° C. Aliquots (100 μL) are analyzed for LTB4 and PGF2.sbsb.α using radioimmunoassay kits as provided by the supplier.
(§5) Table 1 contains biochemical data obtained from this whole cell assay as IC50 s which are calculated as the amount of test compound causing 50% inhibition or percent of inhibition at the named micromoles (μM) of LTB4 or PGF2.sbsb.α formation.

[2] = target: T2, 5-Lipoxygenase (Rattus norvegicus, UniProt P12527); experiment: ARBL whole cell 5-lipoxygenase assay (RBL-1 cells, LTB4 formation, RIA); format: cell-based; conditions: RBL-1 whole cells; for inhibition at 16 µM / inhibition at 10 µM: A23187, read-out: ARBL: Percent inhibition of LTB4 @ μM noted; for IC50: calcium ionophore A23187 (5 μM), read-out: ARBL: IC50 for LTB4 inhibition
T2 construct: host or cells: RBL-1 (rat basophilic leukemia)
T2 sequence (P12527 1-673): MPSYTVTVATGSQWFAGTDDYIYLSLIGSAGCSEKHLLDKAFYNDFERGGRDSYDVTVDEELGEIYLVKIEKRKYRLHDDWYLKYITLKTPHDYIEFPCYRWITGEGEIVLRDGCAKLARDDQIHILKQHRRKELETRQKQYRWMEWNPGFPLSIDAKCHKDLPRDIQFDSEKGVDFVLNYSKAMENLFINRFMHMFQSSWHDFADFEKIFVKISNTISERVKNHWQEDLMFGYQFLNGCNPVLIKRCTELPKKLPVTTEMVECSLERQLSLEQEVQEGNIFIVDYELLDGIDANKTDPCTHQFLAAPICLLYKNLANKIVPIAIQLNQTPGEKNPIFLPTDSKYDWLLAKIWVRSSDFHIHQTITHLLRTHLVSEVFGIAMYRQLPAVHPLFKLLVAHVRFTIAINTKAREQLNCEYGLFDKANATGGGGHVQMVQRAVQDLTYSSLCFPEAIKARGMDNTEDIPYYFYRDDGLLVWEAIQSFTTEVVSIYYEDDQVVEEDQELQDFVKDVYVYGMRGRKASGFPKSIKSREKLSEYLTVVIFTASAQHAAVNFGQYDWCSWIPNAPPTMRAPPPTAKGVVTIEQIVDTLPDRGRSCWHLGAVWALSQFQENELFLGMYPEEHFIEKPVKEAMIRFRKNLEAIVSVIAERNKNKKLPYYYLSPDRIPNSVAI
Protocol: as §1, §2, §3, §4, §5

[3] = tested on: Carrageenan-Induced Rat Foot Paw Edema; experiment: Carrageenan-Induced Rat Foot Paw Edema-2 (CFE-2) Assay; format: in vivo; conditions: dosed 1 hour before carrageenan, edema measured 5 hours after, probit analysis, read-out: CFE: ID40 for inhibition of swelling
Protocol: Carrageenan-Induced Rat Foot Paw Edema-2 (CFE-2) Assay: Protocol
Carrageenan solution (1% w/v) is prepared by dissolving 100 mg carrageenan (Marine Colloidal Div., Springfield, N.J.) in 10 mL of sterile saline (0.9) solution (Travenol). The solution is vortexed for 30 to 45 minutes. Animals are dosed with compound 1 hour before carrageenan challenge. Foot paw edema is induced by injecting 0.10 mL of the 1% carrageenan subcutaneously into the plantar portion of the right hind paw of each rat under light anesthesia. Initial foot paw volume is measured immediately following carrageenan challenge using mercury plethysmography (Buxco Electronics). Edema is measured 5 hours after carrageenan. The difference between the 5-hour and the initial paw volume is expressed as delta edema. The delta edema for each test group of animals is used to calculate the percent inhibition of edema achieved by the compound at the test dose compared with the vehicle control group. The data in Table 1 (the dose at which swelling is inhibited by the noted) is calculated by probit analysis for the dose at which percent inhibition occurs.

SMILES	IC50 [2] [µM]	inhibition at 10 µM ([1]; A23187) [%]	inhibition at 10 µM [2] [%]	also measured
CC(C)(C)c1cc(Sc2n[nH]c(=O)o2)cc(C(C)(C)C)c1O [Example 6, 5-[[3,5-Bis(1,1-dimethylethyl)-4-hydroxyphenyl]thio]-1,3,4-oxadiazol-2(3H)-one]	–	–	–	ARBC: Percent inhibition of PGF2α ([1]; @ 16 (as printed in the cell), A23187): 46%; inhibition at 16 µM [2]: 91%
CC(C)(C)c1cc(Sc2n[nH]c(=S)o2)cc(C(C)(C)C)c1O [Example 7, 5-[[3,5-Bis(1,1-dimethylethyl)-4-hydroxyphenyl]thio]-1,3,4-oxadiazole-2(3H)-thione]	2	–	–	ED40 [3]: 8.6 mg/kg; IC50 [1]: 1.5 µM
CC(C)(C)c1cc(Sc2n[nH]c(=O)s2)cc(C(C)(C)C)c1O [Example 8, 5[[3,5-Bis(1,1-dimethylethyl)-4-hydroxyphenyl]thio]-1,3,4-thiadiazol-2(3H)-one]	–	–	–	inhibition at 16 µM [2]: 90%
CC(C)(C)c1cc(Sc2n[nH]c(=S)s2)cc(C(C)(C)C)c1O [Example 9, 5-[[3,5-Bis(1,1-dimethylethyl)-4-hydroxyphenyl]thio]-1,3,4-thiadiazole-2(3H)-thione]	1.1	–	–	IC50 [1]: 3.6 µM
CC(C)(C)c1cc(Sc2nncs2)cc(C(C)(C)C)c1O [Example 10, 2,6-Bis(1,1-dimethylethyl)-4-[(1,3,4-thiadiazol-2-yl)thio]-phenol]	–	54	59	–
CC(C)(C)c1cc(SCCc2n[nH]c(=O)o2)cc(C(C)(C)C)c1O [Example 13, 5-[2-[[3,5-Bis(1,1-dimethylethyl)-4-hydroxyphenyl]thio]ethyl]-1,3,4-oxadiazol-2(3H)-one]	0.6	75	–	–
CC(C)(C)c1cc(SCCc2n[nH]c(=S)o2)cc(C(C)(C)C)c1O [Example 14, 5-[2-[3,5-Bis(1,1-dimethylethyl)-4-hydroxyphenyl]thio]ethyl-1,3,4-oxadiazole-2(3H)-thione]	4.2	–	–	–
CC(C)(C)c1cc(SCCc2nnco2)cc(C(C)(C)C)c1O [Example 15]	–	55	100	–
CC(C)(C)c1cc(SCCc2nnc(N)o2)cc(C(C)(C)C)c1O [Example 16]	–	–	100	–

Further lines, with some results ahead:

IC50 [2] [µM]	inhibition at 10 µM ([1]; A23187) [%]	inhibition at 10 µM [2] [%]	SMILES	also measured
–	–	60	CC(C)(C)c1cc(CCc2n[nH]c(=O)o2)cc(C(C)(C)C)c1O [Example 23, 5-[2-[3,5-bis(1,1-dimethylethyl)-4-hydroxyphenyl]ethyl]-1,3,4-oxadiazol-2(3H)-one]	–
–	52	100	CC(C)(C)c1cc(CCc2nnco2)cc(C(C)(C)C)c1O [Example 25, 2,6-Bis(1,1-dimethylethyl)-4-[2-(1,3,4-oxadiazol-2-yl)ethyl]phenol]	–
–	–	40	CC(C)(C)c1cc(CCc2nnc(N)o2)cc(C(C)(C)C)c1O [Example 26, 4-[2-(5-Amino-1,3,4-oxadiazol-2-yl)ethyl]-2,6-bis(1,1-dimethylethyl)phenol]	–
1.1	–	–	CC(C)(C)c1cc(C(=O)c2nnc(N)s2)cc(C(C)(C)C)c1O [Example 29, (5-Amino-1,3,4-thiadiazol-2-yl)[3,5-bis(1,1-dimethylethyl)-4-hydroxyphenyl]methanon]	IC50 [1]: 5.2 µM
–	100	100	CSc1nnc(C(=O)c2cc(C(C)(C)C)c(O)c(C(C)(C)C)c2)s1 [Example 30]	–
–	92	100	CC(C)(C)c1cc(C(=O)c2n[nH]c(=S)s2)cc(C(C)(C)C)c1O [Example 31, [3,5-Bis(1,1-dimethylethyl)-4-hydroxphenyl][5(4H)-thioxo-1,3,4-thiadiazol-2-yl]methanone]	–
